# Data published in PubChem BioAssay (NCI).
# Where “and” joins values, the source holds several entries; their conditions need not be identical. Equal entries are not always repeated.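 Following 48 hours of exposure in 96-well plates, responses at five concentrations were used to interpolate endpoints linearly. GI50 marks 50% less growth. TGI is the concentration that stops growth completely.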
# Experiments:
# Experiment in all cases: DTP human tumour cell line panel, 48 h
# NCI/ADR-RES ovarian = system: NCI/ADR-RES ovarian
# CAKI-1 renal = system: CAKI-1 renal
# MDA-MB-435 = system: MDA-MB-435
# COLO 205 colon = system: COLO 205 colon
# UO-31 renal = system: UO-31 renal
# HT29 colon = system: HT29 colon
# UACC-257 melanoma = system: UACC-257 melanoma
# SW-620 colon = system: SW-620 colon
SMILES,TGI (NCI/ADR-RES ovarian),TGI (CAKI-1 renal) [µM],TGI (MDA-MB-435),TGI (COLO 205 colon),TGI (UO-31 renal),TGI (HT29 colon),TGI (UACC-257 melanoma),TGI (SW-620 colon),GI50 (NCI/ADR-RES ovarian),GI50 (CAKI-1 renal) [µM],GI50 (MDA-MB-435),GI50 (COLO 205 colon),GI50 (UO-31 renal),GI50 (HT29 colon),GI50 (UACC-257 melanoma),GI50 (SW-620 colon)
CC1=C(C(=O)N(C)c2ccc(Cl)c(C(=O)OC(C)C)c2)SCCO1,> 100 µM,> 100,> 100 µM,> 100 µM,> 100 µM,> 100 µM,> 100 µM,> 100 µM,–,–,–,–,–,–,–,–
CC(C)CCNCC(O)Cn1c2ccccc2c2ccccc21 (stereo unspecified),30.7 µM,29.8,14.8 µM,3.95 µM,23.3 µM,10.6 µM,17.2 µM,24 µM,14.2 µM,14.3,3.82 µM,2 µM,9.21 µM,3.42 µM,5 µM,10.4 µM
O=C1C(SCCO)=C(SCCO)C(=O)N1c1ccc(-c2ccccc2)cc1,16.2 µM,1.79,12.8 µM,3.09 µM,2.97 µM,3.5 µM,7.62 µM,3.94 µM,3.54 µM,0.644,4.98 µM,1.45 µM,1.54 µM,1.02 µM,3.32 µM,1.45 µM
Cc1ccc(-c2nc3nc(-c4ccccc4)nc(N4CCNCC4)c3o2)cc1,2.21 µM,2.95,3.04 µM,0.423 µM,1.01 µM,0.567 µM,3.8 µM,0.54 µM,0.776 µM,1.53,1.58 µM,0.208 µM,0.513 µM,0.242 µM,1.98 µM,0.23 µM
O=C1NOC(c2ccc(O)cc2)(c2ccc(O)cc2)c2ccccc21,> 100 µM,> 100,> 100 µM,> 100 µM,> 100 µM,> 100 µM,> 100 µM,> 100 µM,> 100 µM,> 100,> 100 µM,> 100 µM,> 100 µM,> 100 µM,> 100 µM,> 100 µM
COc1ccc(Cl)c(Nc2nc3ccccc3nc2NS(=O)(=O)c2cccc(NC(=O)C(C)(C)N)c2)c1,32.3 µM and > 10 µM,> 10,25.2 µM and > 10 µM,22.3 µM and > 10 µM,13.5 µM and > 10 µM,25.9 µM and > 10 µM,25.1 µM and > 10 µM,26.2 µM and > 10 µM,12.1 µM and > 10 µM,6.49,11.5 µM and > 10 µM,7.53 µM and 2.86 µM,1.9 µM and 2.03 µM,9.87 µM and 6.23 µM,12.1 µM and > 10 µM,11.6 µM and > 10 µM
O=[N+]([O-])c1ccc(N=Nc2ccc(O)c3ccccc23)cc1,55.8 µM,> 100,19.1 µM,32.1 µM,> 100 µM,> 100 µM,14.6 µM,> 100 µM,2.41 µM,4.17,5.31 µM,13.2 µM,5.42 µM,13.7 µM,3.6 µM,3.33 µM
Cc1nn(C)c(COc2ccc(N3CCN(S(=O)(=O)N(C)C)CC3)cc2)c1-c1cccc2c(CCCOc3cccc4ccccc34)c(C(=O)O)n(CCN3CCOCC3)c12,> 100 µM,23.9,12 µM,4.81 µM,20.3 µM,6.92 µM,9.52 µM,15 µM,36.5 µM,11.4,3.4 µM,2.1 µM,6.13 µM,2.63 µM,2.91 µM,3.59 µM
COc1ccc(C2=CC(c3ccc(OC)cc3Br)N3C=CSC3=N2)cc1 (stereo unspecified),29 µM,51.4,7.95 µM,25.1 µM,21.2 µM,4.87 µM,31.3 µM,4.79 µM,4.43 µM,13.4,2.58 µM,11.3 µM,7.31 µM,2.09 µM,10.8 µM,2 µM
O=[N+]([O-])c1ccc(N2CCC(CCCC3CCN(c4ccc([N+](=O)[O-])cc4[N+](=O)[O-])CC3)CC2)c([N+](=O)[O-])c1,57.7 µM,41.1,26.8 µM,31.8 µM,26.9 µM,22.2 µM,28.9 µM,57.4 µM,–,–,–,–,–,–,–,–
Nc1c(C(=O)c2cccc(-c3cccnc3)c2)cnn1-c1ccc(F)cc1F,> 21.9 µM,> 25,1.36 µM,> 25 µM,> 25 µM,> 25 µM,> 25 µM,> 25 µM,1.2 µM,4.53,0.476 µM,1.19 µM,5.56 µM,1.05 µM,6.28 µM,1.27 µM
COC(=O)Nc1nc2ccc(Oc3cccc(NC(=O)Nc4cc(C(F)(F)F)ccc4F)c3)cc2[nH]1,> 25 µM,> 25,18.8 µM,> 25 µM,> 25 µM,> 25 µM,> 25 µM,> 25 µM,24.8 µM,14.3,5.78 µM,8.82 µM,14.3 µM,9.11 µM,> 23.7 µM,10.3 µM
